Test results taken from patent publication EP0315861A1, “Antimycotic compositions of a nikkomycin compound and an antimycotic azole” (BAYER AG, priority 1987, dated 1989).

How the values were obtained:
[1] = tested on: C. albicans; assay: septic murine candidosis model, oral therapy; format: in vivo, CFW₁-Mäuse; conditions: for Zahl der überlebenden Tiere in den folgenden Tagen nach der Infektion: 2 x 100 mg/kg oral on the day of infection, 10 animals at day 0
Description: Wirksamkeit von Nikkomycin X und Z in dem Tiermodell von Murine candidosis.
Gezüchtete CFW₁-Mäuse wurden intravenös mit 6 x 10⁵ cfu von C. albicans infiziert. Die orale Therapie wurde gleichzeitig mit der Infektion gestartet. Die Mittel wurden einzeln mit Nährnadeln in Volumina von 0,5 ml ausgegeben.
In dem Modell der septischen Murine candidosis, das häufig zum Testen von Azolen verwendet wird, wird die Behandlung der Tiere gleichzeitig mit der Infektion gestartet, indem man 2 x 100 mg/kg beider Zubereitungen am Tag der Infektion verabreichte. Diese Verabreichungsweise erzeugt nur eine leichte Verzögerung in der lethalen Kinetik (Tabelle 1).

[2] = tested on: Candida albicans-Strang B311; assay: checkerboard in vitro synergy test (microtiter plates, growth inhibition endpoints, isobolograms); format: cell-based; conditions: combination with Nikkomycin versus azole alone
Description: Um die Eignung von Nikkomycinen und Azolen hinsichtlich der synergistischen Wirkung zu testen, wurde ein schachbrettartiger in vitro-Versuch mit der Hefe Candida albicans durchgeführt.
Ein Candida albicans-Strang B311 wurde über Nacht in einer Glucose-Hefeextrakt-Kultur gezüchtet, gewaschen und auf die gewünschte Dichte gebracht.
Die Tests wurden in 96-Loch-Mikrotiterplatten durchgeführt, wobei man eine Hefestickstoffkultur mit Dextrose und Asparagin als Wachstumsmedium verwendete. Die Testmaterialien wurden gelöst, serienmässig verdünnt und dann in die geeigneten Löcher der Mikrotiterplatten überführt, so dass die Endkonzentrationen von 0,02 bis 1 mMol für die Nikkomycine, und 0,06 bis 64 µg für die Azole betrugen. Alle Löcher wurden mit 10.000 Organismen/ml (Endkonzentration) geimpft,und die Platten bei Raumtemperatur 48 Stunden lang inkubiert. Die Platten wurden dann ausgewertet,und die Wachstumsrate für jedes Loch festgestellt. Die Endpunkte wurden für jede Reihe als niedrigste Konzentration, die eine vollständige Inhibierung des Wachstums zeigte, bestimmt. Die Daten wurden als Isobologramme geplottet, die die Endpunkte für die einzelnen Verbindungen als auch die Endpunkte für die verschiedenen Kombinationen zeigten. […]

Compound	Wirksamkeit ([1]; 14-day treatment, daily dose 2 x 10 mg/kg, Fig. 2)	Zahl der überlebenden Tiere in den folgenden Tagen nach der Infektion ([1]; day 3 after infection)	Zahl der überlebenden Tiere in den folgenden Tagen nach der Infektion ([1]; day 6 after infection)	Wirksamkeit ([1]; treatment period 3 days, 100 mg/kg, Fig. 1)	Reduktion des Endpunktes für die Kombination hinsichtlich des Azolendpunktes [2]
C[C@@H]([C@H](N)C(=O)N[C@H](C(=O)O)[C@H]1O[C@@H](n2ccc(=O)[nH]c2=O)[C@H](O)[C@@H]1O)[C@H](O)c1ccc(O)cn1 [Nikkomycin Z]	wirksamer als 2 x 100 mg/kg	6	5	vergleichbar zu der von 25 mg/kg Ketoconazol oder Vibunazol	
Clc1ccccc1C(c1ccccc1)(c1ccccc1)n1ccnc1 [Clotrimazol]					≥ 50 -fach
C[C@@H]([C@H](N)C(=O)N[C@H](C(=O)O)[C@H]1O[C@@H](n2cc(C=O)[nH]c2=O)[C@H](O)[C@@H]1O)[C@H](O)c1ccc(O)cn1 [Nikkomycin X]		10	3		
